Results as given in ChEMBL document CHEMBL5465560, “Selectivity Literature for EUbOPEN Chemogenomic Library” (2024).
Values belong to the compound of their own block, whether it stands above or below them.

How the values were obtained:
[1] = molecular target: T1, Aurora kinase A (Homo sapiens) (UniProt O14965); experiment: Selectivity interaction (Millipore kinase profiler) EUB0000124b STK6; settings: at 10 µM
T1 sequence (whole entry): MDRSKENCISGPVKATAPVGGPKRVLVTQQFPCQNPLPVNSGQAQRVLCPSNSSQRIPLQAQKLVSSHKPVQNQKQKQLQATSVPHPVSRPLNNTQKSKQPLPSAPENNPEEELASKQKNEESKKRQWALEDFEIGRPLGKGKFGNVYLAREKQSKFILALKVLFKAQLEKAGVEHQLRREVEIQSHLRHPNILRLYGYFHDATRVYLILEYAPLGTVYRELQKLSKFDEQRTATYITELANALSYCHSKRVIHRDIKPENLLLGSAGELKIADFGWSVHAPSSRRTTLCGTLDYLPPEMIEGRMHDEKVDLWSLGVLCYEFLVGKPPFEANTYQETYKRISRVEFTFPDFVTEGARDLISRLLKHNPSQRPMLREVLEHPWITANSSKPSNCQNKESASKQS

[2] = molecular target: T2, Serine/threonine-protein kinase 4 (Homo sapiens) (UniProt Q13043); experiment: Selectivity interaction (KinomeScan (DiscoverX)) EUB0001049a STK4; settings: at 1 µM
T2 sequence (whole entry): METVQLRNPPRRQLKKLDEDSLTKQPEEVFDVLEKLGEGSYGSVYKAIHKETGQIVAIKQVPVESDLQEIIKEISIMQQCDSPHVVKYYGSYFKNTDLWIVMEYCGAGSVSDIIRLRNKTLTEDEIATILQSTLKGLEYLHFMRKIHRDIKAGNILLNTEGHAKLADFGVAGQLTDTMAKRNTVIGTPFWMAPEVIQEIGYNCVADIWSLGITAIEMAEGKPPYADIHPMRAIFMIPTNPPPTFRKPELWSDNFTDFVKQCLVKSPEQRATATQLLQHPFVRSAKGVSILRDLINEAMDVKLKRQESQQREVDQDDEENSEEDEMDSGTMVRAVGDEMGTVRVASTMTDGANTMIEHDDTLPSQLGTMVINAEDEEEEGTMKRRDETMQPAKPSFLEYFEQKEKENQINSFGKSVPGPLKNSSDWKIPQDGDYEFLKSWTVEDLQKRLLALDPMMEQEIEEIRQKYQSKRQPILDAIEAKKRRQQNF

[3] = molecular target: T3, Alpha-1B adrenergic receptor (Homo sapiens) (UniProt P35368); experiment: Selectivity interaction (GPCR panel (PDSP screen)) EUB0001079a ADRA1B; settings: at 10 µM
T3 sequence (whole entry): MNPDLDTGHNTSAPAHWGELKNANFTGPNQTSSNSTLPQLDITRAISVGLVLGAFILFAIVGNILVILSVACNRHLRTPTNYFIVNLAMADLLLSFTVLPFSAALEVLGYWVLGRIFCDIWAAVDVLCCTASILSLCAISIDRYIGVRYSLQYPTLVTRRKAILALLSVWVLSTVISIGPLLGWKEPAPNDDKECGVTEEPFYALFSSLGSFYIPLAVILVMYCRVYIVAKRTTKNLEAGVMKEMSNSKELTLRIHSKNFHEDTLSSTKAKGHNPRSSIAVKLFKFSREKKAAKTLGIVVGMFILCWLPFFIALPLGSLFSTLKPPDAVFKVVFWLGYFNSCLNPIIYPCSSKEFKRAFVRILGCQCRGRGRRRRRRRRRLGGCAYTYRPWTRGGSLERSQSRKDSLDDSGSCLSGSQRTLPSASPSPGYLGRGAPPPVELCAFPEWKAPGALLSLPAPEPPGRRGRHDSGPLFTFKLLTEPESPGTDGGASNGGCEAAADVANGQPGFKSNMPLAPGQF

[4] = molecular target: T4, Histone-arginine methyltransferase CARM1 (Homo sapiens) (UniProt Q86X55); experiment: Selectivity interaction (Methyltransferase screen (Scintillation proximity assays)) EUB0000255b CARM1
T4 sequence (whole entry): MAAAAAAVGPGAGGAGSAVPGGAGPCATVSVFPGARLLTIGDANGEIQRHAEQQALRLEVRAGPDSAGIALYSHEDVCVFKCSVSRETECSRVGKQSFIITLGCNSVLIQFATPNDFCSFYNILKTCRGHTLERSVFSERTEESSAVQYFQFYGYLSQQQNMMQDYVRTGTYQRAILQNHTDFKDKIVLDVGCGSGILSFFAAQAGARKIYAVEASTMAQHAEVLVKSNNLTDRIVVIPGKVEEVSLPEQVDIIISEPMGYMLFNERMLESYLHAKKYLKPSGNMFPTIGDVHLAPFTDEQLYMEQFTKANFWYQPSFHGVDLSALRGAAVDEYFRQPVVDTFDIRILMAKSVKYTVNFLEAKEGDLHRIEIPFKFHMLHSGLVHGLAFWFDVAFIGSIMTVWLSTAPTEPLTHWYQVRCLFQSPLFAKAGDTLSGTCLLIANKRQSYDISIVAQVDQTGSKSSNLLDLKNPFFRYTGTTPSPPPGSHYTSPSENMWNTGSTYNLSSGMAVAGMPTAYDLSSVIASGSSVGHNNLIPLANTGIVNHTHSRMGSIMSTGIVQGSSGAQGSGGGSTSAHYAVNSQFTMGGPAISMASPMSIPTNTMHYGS

% of control [1]: 124%
SMILES: CC(=O)Nc1cccc(-n2c(=O)n(C3CC3)c(=O)c3c(Nc4ccc(I)cc4F)n(C)c(=O)c(C)c32)c1

SMILES: COc1cc(Nc2nc(C)cc(-c3cnn4nc(OC)ccc34)n2)cc(C(F)(F)F)c1
% of control [2]: 85%

SMILES: Nc1cnc(N2CCc3cc(S(=O)(=O)Nc4c(F)cc(Cl)cc4F)cc(N4CCCC4=O)c32)nc1 [TP-020n]
% of inhibition [3]: 4.68%

SMILES: COCCN1CCC(c2cc(CN(C)C(=O)c3cccc(Oc4ccccc4)c3)ccn2)CC1
% activity ([4]; at 1 µM): < 1% | % activity ([4]; at 10 µM): 23%
